Holding throughout (assay type): binding
The target in one experiment is HLA-B*58:01 (Homo sapiens, UniProt P01889, A329T/C349S/D201E/D98Y/E176V/E187L/E204Q/E69T/G107R/I218V/I90N/K202T/L105A/L119I/N104I/N87E/Q89R/Q94S/R106L/R155S/R180L/R86G/S101N/S121R/S35A/S48A/T118I/V127L/V306I/V36M/Y140S/Y91M). The settings on record: duplicated experiments, positive binder >40%.
The target of the next experiment is HLA-C*07:01 (Homo sapiens, UniProt P10321, K90N/S123Y). The settings on record: duplicated experiments, positive binder >40%.
In the next experiment the target is HLA-A*24:02 (Homo sapiens, UniProt P04439, D101N/D140Y/D185E/E176V/E190D/F33S/G103R/G107R/I119L/I121M/I306V/K335N/L105A/L180Q/L300P/N151K/N90K/Q86E/Q94H/R106L/R138H/R89G/T104I/T345S/V100E/W191G/Y123F). Particulars: duplicated experiments, positive binder >40%.
The target in a further experiment is HLA-B*07:02 (Homo sapiens, UniProt P01889). The settings on record: percent relative the binding of positive control peptide […]; duplicated experiments; positive binder >40%.
For experiment [1], the target named is T1, HLA-A*30:02 (Homo sapiens, UniProt P04439, D101N/D140H/D185E/E176R/F33S/G80R/H175R/K168Q/Q94H/R138E/R41S/V100E).
The next experiment deals with HLA-A*02:01 (Homo sapiens, UniProt P04439, D140Y/D185E/D98H/E176V/E277Q/G131W/G231S/I119V/I121R/I166T/I218V/L300P/L318F/N151K/N90K/P208A/P217A/Q86G/Q94H/R138H/R169H/T345S). The settings on record: plate-bound monomer 0.5 µg/ml, duplicated experiments, positive binder >40%.
In a further experiment the target is HLA-A*30:01 (Homo sapiens, UniProt P04439, D140H/D185E/E176W/F33S/G80R/H175R/K168Q/R138E/R41S). Particulars: duplicated experiments, positive binder >40%.
The target in experiment [2] is T1, HLA-A*30:02. Particulars: duplicated experiments, positive binder >40%.
The target in experiment [3] is T1, HLA-A*30:02. Particulars: time points 0-8 h.
The next experiment deals with HLA-A*68:01 (Homo sapiens, UniProt P04439, A269V/D185E/E176V/E277Q/E87N/F33Y/G231S/I121M/I166T/I218V/L180W/L300P/L318F/N151K/P208A/P217A/Q86R/R169H/T345S). Particulars: duplicated experiments, positive binder >40%.
The mark [4] stands for this setting: percent relative the binding of positive control peptide IAMESIVIW
Setting [5] is: percent relative the binding of positive control peptide KYFDEHYEY
The mark [6] stands for this setting: percent relative the binding of positive control peptide RYLKDQQLL
[7] abbreviates: peptide titrated 10−4 to 10−9 M.
Where [8] appears, read: percent relative the binding of positive control peptide FLPSDFFPSV
Setting [9] is: percent relative the binding of positive control peptide KTKDIVNGL
Setting [10] is: percent relative the binding of positive control peptide KIQNFRVYY
Where [11] appears, read: percent relative the binding of positive control peptide KTGGPIYKR
The mark [12] stands for this setting: percent relative the binding of positive control peptide […].

Read-outs that look alike come from different tables or passages of the source.

Take AGQAMASTE [Rv3875_79–87]: the “Bind B*58:01” value at HLA-B*58:01 (setting [4]) is on record as 11%. In addition, the “Bind C*07:01” value on HLA-C*07:01 (setting [5]) worked out at 28%. In addition, the “Bind A*24:02” value at HLA-A*24:02 (setting [6]) is reported as 0%. Besides, the “Bind B*07:02” value on HLA-B*07:02 amounted to 9%. Besides, the “Aff A*30:02 (ED50)” value on HLA-A*30:02 [1] (setting [7]) came to 5e-09 M. On HLA-A*02:01 (setting [8]), the “Bind A*02:01” value worked out at 0%. For the same sequence, the “Bind A*30:01” value at HLA-A*30:01 (setting [9]) turned out to be 20%. In addition, the “Bind A*30:02” value at HLA-A*30:02 [2] (setting [10]) amounted to 58%. Moreover, the “O-rate A*30:02 (t1/2)” value on HLA-A*30:02 [3] turned out to be 2.3 h. The “Bind A*68:01” value at HLA-A*68:01 (setting [11]) is reported as 13%.
With CGKAGCQT Y, on HLA-B*58:01 (setting [12]), the “Bind B*58:01” value worked out at 35%. Moreover, the “Bind C*07:01” value on HLA-C*07:01 (setting [12]) came out at 5%. In addition, the “Bind A*24:02” value on HLA-A*24:02 (setting [12]) came out at 32%. Besides, at HLA-B*07:02, the “Bind B*07:02” value was 8%. On HLA-A*30:02 [1], the “Aff A*30:02 (ED50)” value is reported as 8E -08 M. The “Bind A*02:01” value at HLA-A*02:01 (setting [12]) was 44%. Also, the “Bind A*30:01” value on HLA-A*30:01 (setting [12]) was 28%. The “Bind A*30:02” value at HLA-A*30:02 [2] (setting [12]) is 138%. Further, at HLA-A*30:02 [3], the “O-rate A*30:02 (t1/2)” value turned out to be 3 h. For the same sequence, on HLA-A*68:01 (setting [12]), the “Bind A*68:01” value amounted to 60%.
As to LQNLARTIS [Rv3875_69–77], the “Bind B*58:01” value at HLA-B*58:01 (setting [4]) is listed as 20%. In addition, at HLA-C*07:01 (setting [5]), the “Bind C*07:01” value was found to be 3%. In addition, the “Bind A*24:02” value at HLA-A*24:02 (setting [6]) was 26%. Moreover, on HLA-B*07:02, the “Bind B*07:02” value was determined as 10%. Besides, the “Aff A*30:02 (ED50)” value at HLA-A*30:02 [1] (setting [7]) was 1e-08 M. Besides, the “Bind A*02:01” value at HLA-A*02:01 (setting [8]) was 27%. The “Bind A*30:01” value at HLA-A*30:01 (setting [9]) is reported as 11%. Further, the “Bind A*30:02” value on HLA-A*30:02 [2] (setting [10]) was determined as 77%. Moreover, at HLA-A*30:02 [3], the “O-rate A*30:02 (t1/2)” value is recorded as 2.1 h. The “Bind A*68:01” value on HLA-A*68:01 (setting [11]) turned out to be 8%.
In the case of AAWGGSGSE [Rv3875_41–49], the “Bind B*58:01” value on HLA-B*58:01 (setting [4]) is 9%. At HLA-C*07:01 (setting [5]), the “Bind C*07:01” value is listed as 29%. In addition, the “Bind A*24:02” value on HLA-A*24:02 (setting [6]) is 2%. Further, on HLA-B*07:02, the “Bind B*07:02” value is reported as 4%. Moreover, at HLA-A*30:02 [1] (setting [7]), the “Aff A*30:02 (ED50)” value is 3e-07 M. Besides, the “Bind A*02:01” value at HLA-A*02:01 (setting [8]) turned out to be 29%. Also, at HLA-A*30:01 (setting [9]), the “Bind A*30:01” value amounted to 18%. For the same sequence, the “Bind A*30:02” value at HLA-A*30:02 [2] (setting [10]) is recorded as 167%. For the same sequence, the “O-rate A*30:02 (t1/2)” value on HLA-A*30:02 [3] was determined as 1.5 h. Besides, the “Bind A*68:01” value on HLA-A*68:01 (setting [11]) worked out at 29%.
ATATELNNA [Rv3875_60–68]: the “Bind B*58:01” value on HLA-B*58:01 (setting [4]) is 0%. Moreover, the “Bind C*07:01” value at HLA-C*07:01 (setting [5]) was determined as 0%. Further, the “Bind A*24:02” value at HLA-A*24:02 (setting [6]) is listed as 0%. Besides, the “Bind B*07:02” value at HLA-B*07:02 is reported as 12%. Also, the “Aff A*30:02 (ED50)” value at HLA-A*30:02 [1] (setting [7]) is 3e-07 M. Moreover, the “Bind A*02:01” value on HLA-A*02:01 (setting [8]) worked out at 31%. Besides, at HLA-A*30:01 (setting [9]), the “Bind A*30:01” value was 0%. Moreover, the “Bind A*30:02” value at HLA-A*30:02 [2] (setting [10]) turned out to be 67%. At HLA-A*30:02 [3], the “O-rate A*30:02 (t1/2)” value was 3.8 h. Further, at HLA-A*68:01 (setting [11]), the “Bind A*68:01” value turned out to be 0%.
In the case of WGGSGSEAY [Rv3875_43–51], the “Bind B*58:01” value at HLA-B*58:01 (setting [4]) was determined as 2%. Also, on HLA-C*07:01 (setting [5]), the “Bind C*07:01” value worked out at 21%. In addition, at HLA-A*24:02 (setting [6]), the “Bind A*24:02” value is 0%. Moreover, the “Bind B*07:02” value on HLA-B*07:02 is 7%. Also, at HLA-A*30:02 [1] (setting [7]), the “Aff A*30:02 (ED50)” value was determined as 4e-07 M. Besides, the “Bind A*02:01” value on HLA-A*02:01 (setting [8]) stood at 3%. Moreover, on HLA-A*30:01 (setting [9]), the “Bind A*30:01” value was found to be 18%. The “Bind A*30:02” value on HLA-A*30:02 [2] (setting [10]) is 89%. In addition, at HLA-A*30:02 [3], the “O-rate A*30:02 (t1/2)” value amounted to 1.1 h. For the same sequence, the “Bind A*68:01” value at HLA-A*68:01 (setting [11]) came to 2%.
As to TATELNNAL [Rv3875_61–69], on HLA-B*58:01 (setting [4]), the “Bind B*58:01” value stood at 0%. Also, the “Bind C*07:01” value at HLA-C*07:01 (setting [5]) amounted to 5%. Besides, the “Bind A*24:02” value at HLA-A*24:02 (setting [6]) stood at 15%. Besides, at HLA-B*07:02, the “Bind B*07:02” value was determined as 12%. On HLA-A*30:02 [1] (setting [7]), the “Aff A*30:02 (ED50)” value was 9e-09 M. Besides, the “Bind A*02:01” value on HLA-A*02:01 (setting [8]) was found to be 11%. For the same sequence, the “Bind A*30:01” value at HLA-A*30:01 (setting [9]) was 4%. Also, at HLA-A*30:02 [2] (setting [10]), the “Bind A*30:02” value amounted to 106%. Besides, at HLA-A*30:02 [3], the “O-rate A*30:02 (t1/2)” value is 2.6 h. In addition, the “Bind A*68:01” value at HLA-A*68:01 (setting [11]) was found to be 13%.

The values above are taken from publication PMC3608651, “A Broad Profile of Co-Dominant Epitopes Shapes the Peripheral Mycobacterium tuberculosis Specific CD8+ T-Cell Immune Response in South African Patients with Active Tuberculosis” (PLoS ONE, 2013).
